Values of other authors, collected in patent publication US8563051B2, “Herbal composition for weight management” (InQpharm Sdn Bhd, priority 2005, dated 2013).
Where two headings read alike, the source gives them in different places.

How the values were obtained:
[1] = 8-week human clinical study, 26 subjects
[2] = test system: Ehrlich ascites tumor cell; details: in vitro
[3] = doses in the range of 1 to 5 grams a day
[4] = rodents
[5] = human clinical trial; blood levels not measured
[6] = human clinical weight loss trial

C[C@H]1[C@H](C)CC[C@]2(C(=O)O)CC[C@]3(C)C(=CC[C@@H]4[C@@]5(C)C[C@@H](O)[C@H](O)C(C)(C)[C@@H]5CC[C@]43C)[C@H]12 [Corosolic acid, 2-hydroxyursolic acid]
glucose tolerance and blood sugar levels [1]: improved glucose tolerance and improved blood sugar levels
glucose transport activity [2]: stimulate significant glucose transport activity

O=C(O)CC(O)(C(=O)O)C(O)C(=O)O (single isomer, unassigned; (-)) [HCA, (−)hydroxycitric acid]
safety assessment [3]: no relevant safety issues

sodium salt of hydroxycitric acid
food intake and weight [4]: reduce food intake and cause weight loss

O=C([O-])C[C@@](O)(C(=O)[O-])[C@H](O)C(=O)[O-].O=C([O-])C[C@@](O)(C(=O)[O-])[C@H](O)C(=O)[O-].[Ca+2].[Ca+2].[Ca+2] [calcium salt of hydroxycitric acid]
weight loss [5]: ineffective for weight loss

O=C([O-])CC(O)(C(=O)[O-])C(O)C(=O)[O-].[Ca+2].[K+] (stereo not drawn) [calcium and potassium hydroxycitrate]
weight loss [6]: shown to be effective
